From patent US9012433B2, “Substituted tetracycline compounds” (Paratek Pharmaceuticals, Inc., priority 2006, dated 2015)
Values after ≈ are worked out from the molar mass of the structure shown.

Legend:
[1] = test system: B. thetaiotaomicron ATCC 29741; assay: Antibacterial MIC, CLSI broth microdilution; assay type: cell-based; conditions: Bacteroides thetaiotaomicron, ATCC29741; 35° C., 18-24 hours; read-out: MIC B. thetaiotaomicron ATCC 29741
E. coli ATCC 25922 = assay: Antibacterial MIC, CLSI broth microdilution; assay type: cell-based; conditions: Escherichia coli, ATCC25922; 35° C., 18-24 hours
Method in brief: (§1)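 CLSI broth microdilution in cation-supplemented Mueller Hinton broth, inoculum 1×10^5 cfu from 0.5 McFarland cultures diluted 1:200. Incubated 35° C in ambient air for 18-24 hours. Growth read spectrophotometrically and checked manually; MIC (μg/mL) is the lowest compound dilution inhibiting growth.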

E. coli MG 1655 = assay: Antibacterial MIC, CLSI broth microdilution; assay type: cell-based; conditions: Escherichia coli, MG1655; 35° C., 18-24 hours
Method in brief: as §1

P. acnes ATCC 11827 = assay: Antibacterial MIC, CLSI broth microdilution; assay type: cell-based; conditions: Cutibacterium acnes, ATCC11827; 35° C., 18-24 hours
Method in brief: as §1

P. acnes ATCC 6919 = assay: Antibacterial MIC, CLSI broth microdilution; assay type: cell-based; conditions: Cutibacterium acnes, ATCC6919; 35° C., 18-24 hours
Method in brief: as §1

S. aureus RN450 [2] = assay: Antibacterial MIC, CLSI broth microdilution; assay type: cell-based; conditions: Staphylococcus aureus, RN450; 35° C., 18-24 hours
Method in brief: as §1

[3] = test system: S. pneumoniae 157E - Strep; assay: Antibacterial MIC, CLSI broth microdilution; assay type: cell-based; conditions: Streptococcus pneumoniae, 157ESTREP; 35° C., 18-24 hours; lysed horse blood
Method in brief: as §1

in vitro = assay type: cell-based
Method in brief: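 COS-1 or CHO cells exposed to serial dilutions of test compound for 24 hours. Metabolic activity then read with resazurin (Alamar Blue): 2 hours incubation plus 30 minutes dark at room temperature, fluorescence ex 535/em 590 nm, treated versus control.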

S. aureus RN450 [4] = assay: In vivo anti-bacterial activity, S. aureus model; conditions: Staphylococcus aureus, sc; mice, lethal IP S. aureus RN450, single subcutaneous dose 5 mg/kg, 24 hours; read-out: Percent Survival
Procedure: Groups of five mice were injected intraperitoneally with a lethal dose of S. aureus RN450 in a medium of mucin. Mice were evaluated at 24 hours to determine survival. […] In some instances, a dose response study was performed with the compound such that a PD50 (a dose of compound that protects 50% of the animals) could be calculated.

[5] = test system: carrageenan induced rat paw inflammation; assay: Rat carrageenan-induced paw edema inflammatory model; assay type: in vivo; conditions: IP, various doses, FIG. 1
Procedure: The model used a sub-plantar injection of carrageenan in the rat to induce an inflammatory response. The test compound or saline (control) was administered IP 30 minutes before a subplantar injection of carrageenan (1.5 mg/0.1 mL). Paw volume was measured […] before subplantar injection and again 3 hours after the injection of carrageenan using a plethysmometer. Significant differences as determined by a Kruskal-Wallis One Way ANOVA are noted between the inflammation of the untreated controls versus treated animals […]

Compound: CCO/N=C(/C)c1ccc(O)c2c1C[C@H]1C[C@H]3[C@H](N(C)C)C(O)=C(C(N)=O)C(=O)[C@@]3(O)C(O)=C1C2=O [A]
- MIC [1]: > 8 µg/mL
- MIC (E. coli ATCC 25922): < 4 µg/mL
- MIC (E. coli MG 1655): 4 to 8 µg/mL (≈ 8.01 to 16 µM)
- MIC (P. acnes ATCC 11827): < 4 µg/mL
- MIC (P. acnes ATCC 6919): < 4 µg/mL
- MIC (S. aureus RN450 [2]): < 4 µg/mL
- MIC [3]: < 4 µg/mL
- IC50 at 24 h (in vitro; African green monkey): < 35 µg/mL
- IC50 at 24 h (in vitro; Chinese hamster): < 35 µg/mL
- responders at 5 mg/kg (S. aureus RN450 [4]): 100%
- modulation of carrageenan induced inflammation compared with doxycycline [5]: improved activity
